{"source": "patent US20140213513A1", "about": "(Sanofi, priority 2012, published 2014)", "assay_type_in_all_cases": "cell-based", "conditions_in_all_cases": "Table 7; cAMP formation", "key": {"[1]": {"molecular_target": "T1, human GLP-1 receptor (hGLP-1 R) (Homo sapiens, UniProt P43220)", "T1 construct": "expressed in transfected cells", "T1 sequence (P43220 24-463)": "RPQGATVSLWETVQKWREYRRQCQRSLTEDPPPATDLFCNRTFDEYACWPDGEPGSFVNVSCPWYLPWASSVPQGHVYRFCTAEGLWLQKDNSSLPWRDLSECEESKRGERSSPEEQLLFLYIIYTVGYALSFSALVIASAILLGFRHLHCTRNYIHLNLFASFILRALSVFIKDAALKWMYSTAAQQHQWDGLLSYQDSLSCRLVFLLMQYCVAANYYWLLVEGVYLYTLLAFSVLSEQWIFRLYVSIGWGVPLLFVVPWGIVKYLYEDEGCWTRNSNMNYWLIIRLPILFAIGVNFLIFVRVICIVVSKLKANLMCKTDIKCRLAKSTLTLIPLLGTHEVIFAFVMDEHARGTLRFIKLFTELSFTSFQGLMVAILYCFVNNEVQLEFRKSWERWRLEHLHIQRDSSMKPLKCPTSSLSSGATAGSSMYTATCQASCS", "assay": "cAMP response of HEK-293 cells stably expressing human GLP-1 receptor (HTRF)", "outline": "(§1)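 cAMP accumulation was read by homogeneous time-resolved fluorescence after 30 min compound exposure at room temperature. Stable receptor-expressing HEK-293 cells, 400000 cells/ml, were used in HEPES-buffered HBSS containing 0.1% BSA and the phosphodiesterase inhibitor IBMX (2 mM).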"}, "[2]": {"molecular_target": "T2, human GIP receptor (hGIP R) (Homo sapiens, UniProt P48546)", "T2 construct": "expressed in transfected cells", "T2 sequence (P48546 22-466)": "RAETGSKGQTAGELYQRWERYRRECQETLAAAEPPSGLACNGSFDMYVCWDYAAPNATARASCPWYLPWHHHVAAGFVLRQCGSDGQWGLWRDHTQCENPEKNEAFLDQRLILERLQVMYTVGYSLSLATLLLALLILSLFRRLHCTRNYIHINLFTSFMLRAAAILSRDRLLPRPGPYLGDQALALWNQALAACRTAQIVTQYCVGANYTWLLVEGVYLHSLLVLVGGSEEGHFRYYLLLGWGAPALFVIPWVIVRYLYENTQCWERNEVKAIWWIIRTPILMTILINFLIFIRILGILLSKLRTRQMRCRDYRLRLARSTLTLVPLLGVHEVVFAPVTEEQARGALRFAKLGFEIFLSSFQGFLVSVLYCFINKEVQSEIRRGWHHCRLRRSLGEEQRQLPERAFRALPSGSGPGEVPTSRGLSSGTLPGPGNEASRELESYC", "assay": "cAMP response of HEK-293 cells stably expressing human GIP receptor (HTRF)", "outline": "as §1"}, "[3]": {"molecular_target": "T3, human glucagon receptor (hGLUC R) (Homo sapiens, UniProt P47871)", "T3 construct": "expressed in transfected cells", "T3 sequence (P47871 26-477)": "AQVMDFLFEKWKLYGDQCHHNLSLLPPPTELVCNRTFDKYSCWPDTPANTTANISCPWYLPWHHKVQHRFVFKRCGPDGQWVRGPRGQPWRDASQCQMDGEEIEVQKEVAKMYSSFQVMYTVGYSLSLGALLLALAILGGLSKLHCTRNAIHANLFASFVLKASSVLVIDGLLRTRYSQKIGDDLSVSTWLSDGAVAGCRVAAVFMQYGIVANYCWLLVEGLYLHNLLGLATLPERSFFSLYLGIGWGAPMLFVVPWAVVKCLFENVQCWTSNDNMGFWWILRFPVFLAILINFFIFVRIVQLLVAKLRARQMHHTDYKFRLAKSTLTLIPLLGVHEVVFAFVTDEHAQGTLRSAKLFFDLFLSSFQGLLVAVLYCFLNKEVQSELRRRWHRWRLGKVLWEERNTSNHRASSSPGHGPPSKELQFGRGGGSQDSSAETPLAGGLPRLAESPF", "assay": "cAMP response of HEK-293 cells stably expressing human glucagon receptor (HTRF)", "outline": "as §1"}}, "note": "*1 amine or outer side, *2 acyl side, *3 side chain or, on linkers, in order; H or OH if unused. Where a SMILES comes first, the peptide text is derived from it. Side-chain parts run from the residue outwards. [ ]: non-standard residue; d: D form. The star is where a group is joined. γGlu = O=C(O)[C@H](CCC(=O)[*:2])N[*:1]; Stearoyl = CCCCCCCCCCCCCCCCCC(=O)*; Palmitoyl = CCCCCCCCCCCCCCCC(=O)*; Aib = CC(C)(N)C(=O)O", "data": [{"smiles": "CCCCCCCCCCCCCCCCCC(=O)N[C@@H](CCC(=O)NCCCC[C@H](NC(=O)[C@H](CCC(N)=O)NC(=O)[C@@H](NC(=O)[C@H](CO)NC(=O)[C@H](CC(C)C)NC(=O)[C@H](CC(=O)O)NC(=O)[C@H](CO)NC(=O)[C@@H](NC(=O)[C@H](Cc1ccccc1)NC(=O)[C@@H](NC(=O)CNC(=O)[C@H](Cc1c[nH]cn1)NC(=O)C(C)(C)NC(=O)[C@@H](N)Cc1ccc(O)cc1)[C@@H](C)O)[C@@H](C)O)[C@@H](C)CC)C(=O)N[C@@H](CCC(=O)O)C(=O)N[C@@H](CCCCN)C(=O)N[C@@H](CCCNC(=N)N)C(=O)N[C@@H](C)C(=O)N[C@@H](C)C(=O)N[C@@H](Cc1ccccc1)C(=O)N[C@@H](CCC(=O)O)C(=O)N[C@@H](Cc1ccccc1)C(=O)N[C@H](C(=O)N[C@@H](CCC(=O)O)C(=O)N[C@@H](Cc1c[nH]c2ccccc12)C(=O)N[C@@H](CC(C)C)C(=O)N[C@@H](CCCCN)C(=O)N[C@@H](CC(N)=O)C(=O)N[C@H](C(=O)NCC(=O)N1CCC[C@H]1C(=O)N[C@@H](CO)C(=O)N[C@@H](CO)C(=O)NCC(=O)N[C@@H](C)C(=O)N1CCC[C@H]1C(=O)N1CCC[C@H]1C(=O)N1CCC[C@H]1C(=O)N[C@@H](CO)C(N)=O)[C@@H](C)O)[C@@H](C)CC)C(=O)O", "note": "[SEQ ID NO: 32, Y-Aib-H-G-T-F-T-S-D-L-S-I-Q-K(yE-x70)-EKRAAFEFIEWLKNTGPSSGAPPPS-NH2] (H-Y[Aib]HGTFTSDLSIQK([γGlu-Stearoyl])EKRAAFEFIEWLKNTGPSSGAPPPS-NH2)", "values": [{"measurement": "EC50", "setting": "[1]", "value": 41.7, "unit": "pM"}, {"measurement": "EC50", "setting": "[2]", "value": 33.5, "unit": "pM"}, {"measurement": "EC50", "setting": "[3]", "value": 19.2, "unit": "pM"}]}, {"smiles": "CCCCCCCCCCCCCCCC(=O)N[C@@H](CCC(=O)NCCCC[C@H](NC(=O)[C@H](CCC(N)=O)NC(=O)[C@H](CCCCN)NC(=O)[C@H](CO)NC(=O)[C@H](CC(C)C)NC(=O)[C@H](CC(=O)O)NC(=O)[C@H](CO)NC(=O)[C@@H](NC(=O)[C@H](Cc1ccccc1)NC(=O)[C@@H](NC(=O)CNC(=O)[C@H](CCC(=O)O)NC(=O)C(C)(C)NC(=O)[C@@H](N)Cc1ccc(O)cc1)[C@@H](C)O)[C@@H](C)O)C(=O)N[C@@H](CC(=O)O)C(=O)N[C@@H](CCCCN)C(=O)N[C@@H](CCCNC(=N)N)C(=O)N[C@@H](C)C(=O)N[C@@H](C)C(=O)N[C@@H](CCC(N)=O)C(=O)N[C@@H](CC(=O)O)C(=O)N[C@@H](Cc1ccccc1)C(=O)N[C@H](C(=O)N[C@@H](CCC(=O)O)C(=O)N[C@@H](Cc1c[nH]c2ccccc12)C(=O)N[C@@H](CC(C)C)C(=O)N[C@@H](CCCCN)C(=O)N[C@@H](C)C(=O)NCC(=O)NCC(=O)N1CCC[C@H]1C(=O)N[C@@H](CO)C(=O)N[C@@H](CO)C(=O)NCC(=O)N[C@@H](C)C(=O)N1CCC[C@H]1C(=O)N1CCC[C@H]1C(=O)N1CCC[C@H]1C(=O)N[C@@H](CO)C(N)=O)[C@@H](C)CC)C(=O)O", "note": "[SEQ ID NO: 63, Y-Aib-E-G-T-F-T-S-D-L-S-K-Q-K(yE-x53)-DKRAAQDFIEWLKAGGPSSGAPPPS-NH2] (H-Y[Aib]EGTFTSDLSKQK([γGlu-Palmitoyl])DKRAAQDFIEWLKAGGPSSGAPPPS-NH2)", "values": [{"measurement": "EC50", "setting": "[1]", "value": 6, "unit": "pM"}, {"measurement": "EC50", "setting": "[2]", "value": 11.9, "unit": "pM"}, {"measurement": "EC50", "setting": "[3]", "value": 1670, "unit": "pM"}]}, {"smiles": "CCCCCCCCCCCCCCCC(=O)N[C@@H](CCC(=O)NCCCC[C@H](NC(=O)[C@H](CCC(N)=O)NC(=O)[C@@H](NC(=O)[C@H](CO)NC(=O)[C@H](CC(C)C)NC(=O)[C@H](CC(=O)O)NC(=O)[C@H](CO)NC(=O)[C@@H](NC(=O)[C@H](Cc1ccccc1)NC(=O)[C@@H](NC(=O)CNC(=O)[C@H](CCC(N)=O)NC(=O)C(C)(C)NC(=O)[C@@H](N)Cc1ccc(O)cc1)[C@@H](C)O)[C@@H](C)O)[C@@H](C)CC)C(=O)N[C@@H](CC(=O)O)C(=O)N[C@@H](CO)C(=O)N[C@@H](CCCNC(=N)N)C(=O)N[C@@H](C)C(=O)N[C@@H](C)C(=O)N[C@@H](CCC(N)=O)C(=O)N[C@@H](CC(=O)O)C(=O)N[C@@H](Cc1ccccc1)C(=O)N[C@H](C(=O)N[C@@H](CCC(=O)O)C(=O)N[C@@H](Cc1c[nH]c2ccccc12)C(=O)N[C@@H](CC(C)C)C(=O)N[C@@H](CCCCN)C(=O)N[C@@H](CCCCN)C(=O)NCC(=O)NCC(=O)N1CCC[C@H]1C(=O)N[C@@H](CO)C(=O)N[C@@H](CO)C(=O)NCC(=O)N[C@@H](C)C(=O)N1CCC[C@H]1C(=O)N1CCC[C@H]1C(=O)N1CCC[C@H]1C(=O)N[C@@H](CO)C(N)=O)[C@@H](C)CC)C(=O)O", "note": "[SEQ ID NO: 43, Y-Aib-Q-G-T-F-T-S-D-L-S-I-Q-K(yE-x53)-DSRAAQDFIEWLKKGGPSSGAPPPS-NH2] (H-Y[Aib]QGTFTSDLSIQK([γGlu-Palmitoyl])DSRAAQDFIEWLKKGGPSSGAPPPS-NH2)", "values": [{"measurement": "EC50", "setting": "[1]", "value": 7, "unit": "pM"}, {"measurement": "EC50", "setting": "[2]", "value": 48.2, "unit": "pM"}, {"measurement": "EC50", "setting": "[3]", "value": 114, "unit": "pM"}]}, {"smiles": "CCCCCCCCCCCCCCCC(=O)N[C@@H](CCC(=O)NCCCC[C@H](NC(=O)[C@H](CCC(N)=O)NC(=O)[C@@H](NC(=O)[C@H](CO)NC(=O)[C@H](CC(C)C)NC(=O)[C@H](CC(=O)O)NC(=O)[C@H](CO)NC(=O)[C@@H](NC(=O)[C@H](Cc1ccccc1)NC(=O)[C@@H](NC(=O)CNC(=O)[C@H](CCC(=O)O)NC(=O)C(C)(C)NC(=O)[C@@H](N)Cc1ccc(O)cc1)[C@@H](C)O)[C@@H](C)O)[C@@H](C)CC)C(=O)N[C@@H](CCC(=O)O)C(=O)N[C@@H](CCC(=O)O)C(=O)N[C@@H](CCC(N)=O)C(=O)N[C@@H](C)C(=O)N[C@@H](C)C(=O)N[C@@H](Cc1c[nH]cn1)C(=O)N[C@@H](CCC(=O)O)C(=O)N[C@@H](Cc1ccccc1)C(=O)N[C@H](C(=O)N[C@@H](CCC(=O)O)C(=O)N[C@@H](Cc1c[nH]c2ccccc12)C(=O)N[C@@H](CC(C)C)C(=O)N[C@@H](CCCCN)C(=O)N[C@@H](CCCNC(=N)N)C(=O)NC(C)(C)C(=O)NCC(=O)N1CCC[C@H]1C(=O)N[C@@H](CO)C(=O)N[C@@H](CO)C(=O)NCC(=O)N[C@@H](C)C(=O)N1CCC[C@H]1C(=O)N1CCC[C@H]1C(=O)N1CCC[C@H]1C(=O)N[C@@H](CO)C(N)=O)[C@@H](C)CC)C(=O)O", "note": "[SEQ ID NO: 38, Y-Aib-E-G-T-F-T-S-D-L-S-I-Q-K(yE-x53)-E-E-Q-A-A-H-E-F-I-E-W-L-K-R-Aib-G-P-S-S-G-A-P-P-P-S-NH2]", "values": [{"measurement": "EC50", "setting": "[1]", "value": 9, "unit": "pM"}, {"measurement": "EC50", "setting": "[2]", "value": 7.4, "unit": "pM"}, {"measurement": "EC50", "setting": "[3]", "value": 22500, "unit": "pM"}]}, {"smiles": "CCCCCCCCCCCCCCCC(=O)N[C@@H](CCC(=O)NCCCC[C@H](NC(=O)[C@H](CCC(N)=O)NC(=O)[C@@H](NC(=O)[C@H](CO)NC(=O)[C@H](CC(C)C)NC(=O)[C@H](CC(=O)O)NC(=O)[C@H](CO)NC(=O)[C@@H](NC(=O)[C@H](Cc1ccccc1)NC(=O)[C@@H](NC(=O)CNC(=O)[C@H](CCC(N)=O)NC(=O)C(C)(C)NC(=O)[C@@H](N)Cc1ccc(O)cc1)[C@@H](C)O)[C@@H](C)O)[C@@H](C)CC)C(=O)N[C@@H](CCC(=O)O)C(=O)N[C@@H](CCCCN)C(=O)N[C@@H](CCCNC(=N)N)C(=O)N[C@@H](C)C(=O)N[C@@H](C)C(=O)N[C@@H](Cc1c[nH]cn1)C(=O)N[C@@H](CCC(=O)O)C(=O)N[C@@H](Cc1ccccc1)C(=O)N[C@H](C(=O)N[C@@H](CCC(=O)O)C(=O)N[C@@H](Cc1c[nH]c2ccccc12)C(=O)N[C@@H](CC(C)C)C(=O)N[C@@H](CCCCN)C(=O)N[C@@H](CC(N)=O)C(=O)N[C@H](C(=O)NCC(=O)N1CCC[C@H]1C(=O)N[C@@H](CO)C(=O)N[C@@H](CO)C(=O)NCC(=O)N[C@@H](C)C(=O)N1CCC[C@H]1C(=O)N1CCC[C@H]1C(=O)N1CCC[C@H]1C(=O)N[C@@H](CO)C(N)=O)[C@@H](C)O)[C@@H](C)CC)C(=O)O", "note": "[SEQ ID NO: 36, Y-Aib-Q-G-T-F-T-S-D-L-S-I-Q-K(yE-x53)-EKRAAHEFIEWLKNTGPSSGAPPPS-NH2] (H-Y[Aib]QGTFTSDLSIQK([γGlu-Palmitoyl])EKRAAHEFIEWLKNTGPSSGAPPPS-NH2)", "values": [{"measurement": "EC50", "setting": "[1]", "value": 5.2, "unit": "pM"}, {"measurement": "EC50", "setting": "[2]", "value": 30.1, "unit": "pM"}, {"measurement": "EC50", "setting": "[3]", "value": 39.5, "unit": "pM"}]}]}
